Data from ChEMBL document CHEMBL1201862, “PubChem BioAssay data set” (2004).
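Step 1: Grow cells in 96-well plates. Step 2: Expose to compound for 48 hours at 5 concentrations. Step 3: Interpolate endpoints linearly; if unreached, use highest concentration. Here, GI50 denotes the concentration required for 50% inhibition of growth.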 The source made the active and inactive calls. Rule as the data show it: active = GI50 up to about 1.1 µM and inactive = higher.

How the values were obtained:
Test in all cases: NCI anticancer screen, dose series, 48 h
A498 = test system: A498
NCI-H23 = test system: NCI-H23
UO-31 = test system: UO-31
T47D = test system: T47D
SR = test system: SR
CAKI-1 = test system: CAKI-1
MCF7 = test system: MCF7
NCI-H522 = test system: NCI-H522
PC-3 = test system: PC-3
OVCAR-3 = test system: OVCAR-3
ACHN = test system: ACHN
SN12C = test system: SN12C
IGROV-1 = test system: IGROV-1
RPMI-8226 = test system: RPMI-8226
MDA-MB-435 = test system: MDA-MB-435
SF-268 = test system: SF-268
CCRF-CEM = test system: CCRF-CEM
HCT-116 = test system: HCT-116
K562 = test system: K562
SK-MEL-28 = test system: SK-MEL-28

Row | Compound | GI50 (A498) | GI50 (NCI-H23) | GI50 (UO-31) | GI50 (T47D) | GI50 (SR) | GI50 (CAKI-1) | GI50 (MCF7) | GI50 (NCI-H522) | GI50 (PC-3) | GI50 (OVCAR-3) | GI50 (ACHN) | GI50 (SN12C) | GI50 (IGROV-1) | GI50 (RPMI-8226) | GI50 (MDA-MB-435) | GI50 (SF-268) | GI50 (CCRF-CEM) | GI50 (HCT-116) | GI50 (K562) | GI50 (SK-MEL-28)
1 | Nc1nc(Cl)cc(NCC2(CO)CCC(O)C2)n1 (centres undefined) | > 100 µM (inactive) | > 100 µM (inactive) | > 100 µM (inactive) | > 100 µM (inactive) | > 100 µM (inactive) | > 100 µM (inactive) | > 100 µM (inactive) | > 100 µM (inactive) | > 100 µM (inactive) | > 100 µM (inactive) | > 100 µM (inactive) | > 100 µM (inactive) | > 100 µM (inactive) | > 100 µM (inactive) | > 100 µM (inactive) | > 100 µM (inactive) | > 100 µM (inactive) | > 100 µM (inactive) | > 100 µM (inactive) | > 100 µM (inactive)
2 | O=C(Oc1c(I)ccccc1=O)c1ccc([N+](=O)[O-])cc1 | 0.409 µM (active) | 42.4 µM (inactive) | 17.3 µM (inactive) | 0.0785 µM (active) | 4.34 µM (inactive) | 24.4 µM (inactive) | 17.2 µM (inactive) | 17.7 µM (inactive) | 27.4 µM (inactive) | 13.6 µM (inactive) | 24.8 µM (inactive) | 20.4 µM (inactive) | 14.9 µM (inactive) | 23.2 µM (inactive) | 19.4 µM (inactive) | 15.5 µM (inactive) | 22.5 µM (inactive) | 26.1 µM (inactive) | 24.2 µM (inactive) | 8.09 µM (inactive)
3 | c1ccc(-c2nnc(SCc3c[nH]c4ccccc34)n2-c2ccccc2)cc1 | 19.3 µM (inactive) | 41.4 µM (inactive) | > 100 µM (inactive) | 20 µM (inactive) | 11.7 µM (inactive) | 33.1 µM (inactive) | 42.3 µM (inactive) | 25.9 µM (inactive) | 21.4 µM (inactive) | 40.8 µM (inactive) | 26.6 µM (inactive) | 68.4 µM (inactive) | 27.2 µM (inactive) | > 100 µM (inactive) | 34.6 µM (inactive) | 38.2 µM (inactive) | 25.9 µM (inactive) | 35.6 µM (inactive) | 47.5 µM (inactive) | 75.3 µM (inactive)
4 | O=[N+]([O-])C(=C1NCCN1)/C(Cl)=C(\Cl)Br | > 44.9 µM (inactive) | > 49.8 µM (inactive) | 84.1 µM (inactive) | 17.5 µM (inactive) | 21.5 µM (inactive) | 16.3 µM (inactive) | 30.3 µM (inactive) | 19.1 µM (inactive) | > 59.4 µM (inactive) | 18 µM (inactive) | 38.2 µM (inactive) | 41.2 µM (inactive) | 52.2 µM (inactive) | 22.4 µM (inactive) | 29.4 µM (inactive) | 35.2 µM (inactive) | 7.1 µM (inactive) | 28.8 µM (inactive) | 5.33 µM (inactive) | 32 µM (inactive)
5 | C/C(=C/CC[C@](C)(OC1OC(CO)C(O)C(O)C1OC1OC(C)C(O)C(O)C1O)[C@H]1CC[C@]2(C)[C@@H]1CC[C@@H]1[C@@]3(C)CC[C@H](O)C(C)(C)[C@@H]3C[C@H](O)[C@]12C)CO (some centres undefined) | > 100 µM (inactive) | > 100 µM (inactive) | > 100 µM (inactive) | > 100 µM (inactive) | > 100 µM (inactive) | > 100 µM (inactive) | > 100 µM (inactive) | > 100 µM (inactive) | > 100 µM (inactive) | > 100 µM (inactive) | > 100 µM (inactive) | > 100 µM (inactive) | > 100 µM (inactive) | > 100 µM (inactive) | > 100 µM (inactive) | > 100 µM (inactive) | > 100 µM (inactive) | > 100 µM (inactive) | > 100 µM (inactive) | > 100 µM (inactive)
6 | OCCCCn1cc(Cn2ncc3c(SCc4ccccc4)ncnc32)nn1 | 43.5 µM (inactive) | 54.2 µM (inactive) | 31.1 µM (inactive) | 32.2 µM (inactive) | 27.7 µM (inactive) | 31 µM (inactive) | 57 µM (inactive) | 29.2 µM (inactive) | 61.2 µM (inactive) | 28.2 µM (inactive) | 67.6 µM (inactive) | 63 µM (inactive) | 77.6 µM (inactive) | 40.9 µM (inactive) | 19.9 µM (inactive) | 63.1 µM (inactive) | 45.5 µM (inactive) | 33.6 µM (inactive) | 38.8 µM (inactive) | 51.2 µM (inactive)
7 | CCO[C@]12CCC[C@H]1[C@@H]1C(=O)c3ccccc3C(=O)C1=C(C)O2 | 76 µM (inactive) | 98.2 µM (inactive) | > 100 µM (inactive) | 70 µM (inactive) | 22.3 µM (inactive) | 55.8 µM (inactive) | 17 µM (inactive) | > 100 µM (inactive) | > 100 µM (inactive) | 22 µM (inactive) | 36.8 µM (inactive) | > 100 µM (inactive) | > 100 µM (inactive) | 29.2 µM (inactive) | 39.5 µM (inactive) | 30.8 µM (inactive) | 33.5 µM (inactive) |  | 32 µM (inactive) | > 100 µM (inactive)
8 | CC1OC(OC2C(O[C@H]3CC[C@@]4(C)C(=CC[C@H]5[C@@H]6C[C@@H]7O[C@]8(CC[C@@H](C)CO8)[C@@H](C)[C@@H]7[C@@]6(C)CC[C@@H]54)C3)OC(CO)C(O)C2OC2OC(CO)C(O)C(O)C2O)C(O)C(O)C1O (some centres undefined) | 1.44 µM (inactive) | 1.89 µM (inactive) | 1.94 µM (inactive) | 2.31 µM (inactive) | > 100 µM (inactive) | 3.5 µM (inactive) | 2.19 µM (inactive) | 1.86 µM (inactive) | 1.87 µM (inactive) | 1.08 µM (active) | 1.8 µM (inactive) | 8.75 µM (inactive) | 1.76 µM (inactive) | 2.54 µM (inactive) | 1.81 µM (inactive) | 1.9 µM (inactive) | 14.3 µM (inactive) | 2.58 µM (inactive) | 14.4 µM (inactive) | 1.9 µM (inactive)
9 | COc1ccc([N+](=O)[O-])c2c(NCCCN(C)C)c(C)c(C)nc12 | > 100 µM (inactive) | 44.8 µM (inactive) | > 100 µM (inactive) | 77.3 µM (inactive) | 14.3 µM (inactive) | > 100 µM (inactive) | 49.9 µM (inactive) | 27.9 µM (inactive) | 83 µM (inactive) | 96.6 µM (inactive) | > 100 µM (inactive) | > 100 µM (inactive) | 36.6 µM (inactive) | 31.8 µM (inactive) | > 100 µM (inactive) | > 100 µM (inactive) | > 100 µM (inactive) | 36.2 µM (inactive) | 37.6 µM (inactive) | > 100 µM (inactive)
10 | O=c1[nH]nc(-c2ccc3ccccc3c2)[nH]1 | 80 µM (inactive) | > 100 µM (inactive) | 43.3 µM (inactive) | > 100 µM (inactive) | 45.1 µM (inactive) | > 100 µM (inactive) | > 100 µM (inactive) | > 100 µM (inactive) | > 100 µM (inactive) | > 100 µM (inactive) | > 100 µM (inactive) | > 100 µM (inactive) | 70.3 µM (inactive) | > 100 µM (inactive) | > 100 µM (inactive) | > 100 µM (inactive) | > 100 µM (inactive) | > 100 µM (inactive) | > 100 µM (inactive) | > 100 µM (inactive)
11 | N#CC(C#N)=Cc1c(O)ccc2ccccc12 | 16 µM (inactive) | 12.2 µM (inactive) | 14 µM (inactive) | 13.3 µM (inactive) | 4.17 µM (inactive) | 14.1 µM (inactive) | 10.1 µM (inactive) | 9.93 µM (inactive) | 17.5 µM (inactive) | 13.7 µM (inactive) | 10.4 µM (inactive) | 13.6 µM (inactive) | 17.8 µM (inactive) | 11.9 µM (inactive) | 14.4 µM (inactive) | 11.9 µM (inactive) | 1.57 µM (inactive) | 11.4 µM (inactive) | 4.05 µM (inactive) | 14.5 µM (inactive)
12 | CCCN(CCC)C(=O)c1c(N2CCN(C)CC2)c2cccnc2n2c(C)cnc12 | 78.5 µM (inactive) | > 100 µM (inactive) | 70 µM (inactive) | 14.8 µM (inactive) | 39.5 µM (inactive) | 60.8 µM (inactive) | > 100 µM (inactive) | 33.1 µM (inactive) | > 100 µM (inactive) | 94.8 µM (inactive) | > 100 µM (inactive) | > 100 µM (inactive) | > 100 µM (inactive) | > 100 µM (inactive) | > 100 µM (inactive) | > 100 µM (inactive) | > 100 µM (inactive) | > 100 µM (inactive) | > 100 µM (inactive) | > 100 µM (inactive)
13 | COC(O)C(=O)c1c2c(cc3c1CCC3)CCC2 (centres undefined) | > 100 µM (inactive) | > 100 µM (inactive) | > 100 µM (inactive) | > 100 µM (inactive) | 66.2 µM (inactive) | > 100 µM (inactive) | > 100 µM (inactive) | > 100 µM (inactive) | > 100 µM (inactive) | > 100 µM (inactive) | > 100 µM (inactive) | > 100 µM (inactive) | > 100 µM (inactive) | 55.1 µM (inactive) | > 100 µM (inactive) | > 100 µM (inactive) | 55 µM (inactive) | > 100 µM (inactive) | 80.9 µM (inactive) | > 100 µM (inactive)
14 | Cc1cc(Cl)nc2ccc(Cc3ccc4nc(Cl)cc(C)c4c3)cc12 | 21 µM (inactive) | 44.6 µM (inactive) | 37.6 µM (inactive) | 6.25 µM (inactive) | 85.3 µM (inactive) | 39.8 µM (inactive) | 19.1 µM (inactive) | 24.2 µM (inactive) | 42.7 µM (inactive) | 39.3 µM (inactive) | 16 µM (inactive) | 85.1 µM (inactive) | 31.7 µM (inactive) | 36.6 µM (inactive) | 65.2 µM (inactive) | 43.2 µM (inactive) | > 100 µM (inactive) | 22.8 µM (inactive) | > 100 µM (inactive) | > 100 µM (inactive)
